Read-outs that look alike come from different tables or passages of the source.
How the values were obtained:
[1] = system: P. falciparum stage V gametocytes; test: Gametocytocidal ATP bioluminescence assay (single point 5 μM and 1 μM, dose-response); assay type: cell-based, Plasmodium falciparum; settings: for Ratio IC50 HepG2/IC50 P. falciparum: IC50 HepG2 divided by IC50 P. falciparum gametocytes
Method: Purified stage IV-V gametocytes were obtained as previously described [10]. Single point ATP bioluminescence assay and dose–response of positive hits was determined in accordance with the previously published protocol [10].

[2] = system: HepG2 cells; test: Cytotoxicity in HepG2 cells (intracellular ATP, ATPlite, 48 h); assay type: cell-based, human; settings: HepG2 cells; IC50 per ratio column head; unit inferred
[3] = system: P. falciparum asexual stages; settings: asexual stages; TCAMS data; read-out: IC50 asexual; cited from earlier work
[4] = P. falciparum gametocytes, average, read-out: IC50 Pf Gametocytes average, IC50 (µM) average
[5] = sexual stages (gametocytes), dose-response, read-out: IC50 sexual

Structure (SMILES)	Ratio IC50 HepG2/IC50 P. falciparum [1]	IC50 [1, 4] [µM]	IC50 [1, 5] [µM]	IC50 [2] [µM]	IC50 [3] [µM]
COc1cccc(OC)c1CN1CCC(N(C)CCCCCCCCN2CCC(OC(=O)Nc3ccccc3-c3ccccc3)CC2)CC1 [TCMDC-134684]	3.29	1.04	1.03	3.4	0.458
COc1cccc(OC)c1CN1CCC(N(C)CCCCCCCCCN2CCC(OC(=O)Nc3ccccc3-c3ccccc3)CC2)CC1 [TCMDC-134690]	<6	0.26	0.255	< 1.56	0.319
Cc1cc(N[C@@H](Cc2ccccc2)C(=O)NCCc2ccccc2)nc(NCCc2ccccc2)n1 [TCMDC-134776]	<1	> 10	–	13.6	0.85
COc1ccccc1CCNc1nc(C)cc(N[C@@H](Cc2ccccc2)C(=O)NCCOc2ccccc2)n1 [TCMDC-134862]	<1	> 10	–	11.1	1.21
COc1ccccc1CCNc1nc(C)cc(N[C@@H](Cc2ccccc2)C(=O)NCc2cccc(F)c2)n1 [TCMDC-134893]	1.19	5.3	–	6.3	0.867
CCn1c(Sc2ccc([N+](=O)[O-])c(C#N)c2)nnc1-c1cccc(Cl)c1 [TCMDC-135234]	>8	3.04	–	> 25	0.873
CCn1c(-c2nonc2N)nc2c(-c3cc4ccccc4s3)ncc(C(=O)N3CCC(N)C3)c21 (stereo not drawn) [TCMDC-135281]	10	0.35	–	3.5	0.871
COc1cc2ccccc2cc1OCCCN1CCN(CC(c2ccc(F)cc2)N2CCN(C(C)C)CC2)CC1 (stereo not drawn) [TCMDC-135496]	3	1.25	1.25	3.72	0.749
CC(C)(C)N1CCC(N(Cc2ccc(-c3ccc(C(F)(F)F)cc3)cc2)C(=O)Cn2c(CCc3cccc(F)c3F)cc(=O)c3cccnc32)CC1 [TCMDC-136011]	1.3	2.39	–	3.1	0.705
CCn1c(-c2nonc2N)nc2c(-c3cccc(NC(=O)Nc4ccccc4OC)c3)ncc(OCCCN)c21 [TCMDC-136190]	14	0.44	0.435	5.9	1
CCn1c(-c2nonc2N)nc2c(-c3cccc(NC(=O)Nc4cccc(Cl)c4)c3)ncc(OCCCN)c21 [TCMDC-136193]	7	2.17	2.17	14.5	0.941
CCn1c(-c2nonc2N)nc2c(-c3cccc(NC(=O)Nc4cccc(C#N)c4)c3)ncc(OCCCN)c21 [TCMDC-136195]	7	3.51	3.52	24.7	0.669
NCCCOc1cnc(-c2ccccc2)c2nc(-c3nonc3N)n(CCc3ccccc3)c12 [TCMDC-136216]	4	1.4	–	5.61	1.27
O=C(Nc1ccc(F)c(C(F)(F)F)c1)NC1CCN(CCCCCNC(=O)C2CC2c2ccc(Cl)c(Cl)c2)CC1 (stereo not drawn) [TCMDC-136259]	1.47	4.35	–	6.4	0.663
COc1cc(Br)c(S(=O)(=O)n2cc(CN3CCC(N)CC3)c3cc(Cl)ccc32)cc1OC [TCMDC-136384]	2.77	2.42	2.42	6.7	0.985
CN1CCCN(Cc2cccc(-c3ccc(NS(=O)(=O)c4cccc5cccnc45)cc3)c2)CC1 [TCMDC-136481]	<1	> 10	–	6.5	0.957
Fc1ccc(N(c2nc(-c3cc(F)cc(C(F)(F)F)c3)cs2)C2CCNCC2)cc1 [TCMDC-136656]	2	3.28	3.27	6.6	0.956

Structure (SMILES)	Ratio IC50 HepG2/IC50 P. falciparum [1]	IC50 [1, 4] [µM]	IC50 [1, 5] [µM]	IC50 [2] [µM]	IC50 [3] [µM]
CCNCc1cccc(-c2ccc3ccnc(N)c3c2)c1 [TCMDC-136869]	7.56	1.66	–	12.5	0.047
FC(F)(F)COc1c(CCNCCCCNCCc2ccc3ccccc3c2OCC(F)(F)F)ccc2ccccc12 [TCMDC-137169]	28	0.1	–	2.8	0.348
CCN(CC)CCOc1ccc(C(O)(C#CC(O)(c2ccccc2)c2ccc(OCCN(CC)CC)cc2)c2ccccc2)cc1 (stereo not drawn) [TCMDC-137197]	5.34	0.69	0.687	3.67	1.31
CCN(CC)CCOc1ccc(C(O)(C#CC(O)(c2ccc(C)cc2)c2ccc(OCCN(CC)CC)cc2)c2ccc(C)cc2)cc1 (stereo not drawn) [TCMDC-137198]	12	0.14	–	1.62	0.903
CCN(CC)CCOc1ccc(C(O)(C#CC(O)(c2ccc(OCCN(CC)CC)cc2)c2ccc([N+](=O)[O-])cc2)c2ccc([N+](=O)[O-])cc2)cc1 (stereo not drawn) [TCMDC-137201]	28	0.22	0.224	6.2	1.73
CCc1cc(COc2ccc(CNCCC(C)C)cc2I)c(OCc2ccccc2)c(COc2ccc(CNCCC(C)C)cc2I)c1 [TCMDC-137255]	5.71	1.02	1.01	5.8	1.11
CC(C)NCc1ccc(OCc2cccc(COc3ccc(CNC(C)C)cc3I)c2)c(I)c1 [TCMDC-137259]	23	0.21	–	4.9	0.092
CC(C)CCNCc1ccc(OCc2cccc(COc3ccc(CNCCC(C)C)cc3I)c2)c(I)c1 [TCMDC-137274]	14	0.37	–	5.3	0.453
FC(F)(F)COc1ccc(CCNCCCCNCCc2ccc(OCC(F)(F)F)c3ccccc23)c2ccccc12 [TCMDC-137282]	112	0.0267	0.027	3	0.648
FC(F)(F)COc1ccc2ccccc2c1CCNCCCCNCCc1c(OCC(F)(F)F)ccc2ccccc12 [TCMDC-137317]	2.41	1.37	–	3.3	0.426
COc1ccc2c(c1CCNCCCCNCCc1c(OC)ccc3c1CCCC3)CCCC2 [TCMDC-137324]	5	0.15	–	0.75	0.376
C=CCOc1ccc2ccccc2c1CNCCCCCCNCc1c(OCC=C)ccc2ccccc12 [TCMDC-137340]	<6	0.25	–	< 1.56	0.859
CCCCCCN=C(N)c1ccc(OCCCCCOc2ccc(C(N)=NCCCCCC)cc2)cc1 [TCMDC-137619]	17	0.31	0.309	5.39	0.309
c1ccc2c(NCCCCCCCCCNc3ccnc4ccccc34)ccnc2c1 [TCMDC-137750]	2.83	1.03	1.02	2.9	0.115
c1ccc2c(NCCCCCCCCNc3ccnc4ccccc34)ccnc2c1 [TCMDC-137751]	3.46	1.08	–	3.74	0.155
CCOc1c(CCNCCCCNCCc2ccc3ccccc3c2OCC)ccc2ccccc12 [TCMDC-137759]	<9	0.17	0.173	< 1.56	0.596
